Consider 13 compounds from patent US12649750B2, “Macrocyclic compounds, compositions, and methods of using thereof” (Sionna Therapeutics Inc., priority 2022, dated 2026).

Structures are written as SMILES.

Assay [1] has as its target T1, NBD1 (Homo sapiens, UniProt P13569).
T1 construct: Purified recombinant NBD1 was produced using previously described methods; made in house
In words: Aggregation analysis using differential static light scattering (DSLS), thermal stability of NBD1 (ΔTagg). In kind it is binding. As to conditions: ΔTagg versus DMSO control, NBD1 0.2 mg/ml. In a few lines: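 Purified recombinant NBD1 at 0.2 mg/ml in Tris buffer pH7.6 with 2 mM ATP, 5 mM MgCl2, 2 mM DTT and 1% glycerol was mixed with DMSO-dissolved compounds under mineral oil. Plates were heated at 1° C. per minute to 70° C., light scattering imaged every 0.5° C.; Tagg from curve inflection, minus DMSO-control mean.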

In assay [2] the target is T2, CFTR (Homo sapiens, UniProt P13569, DEL508-508).
T2 construct: Primary human bronchial epithelial cells from a ΔF508 homozygous CF donor; host or cells: primary human bronchial epithelial cells (CF-HBE), ΔF508 homozygous donor
In words: TECC24 AUC fold over DMSO @10 μM, CFTR-mediated transepithelial chloride transport in CF-HBE cells. As to conditions: test agent AUC divided by DMSO vehicle AUC, primary CF-HBE cells, ΔF508 homozygous donor, 48 hours incubation. In kind it is cell-based. The gist of the method:
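ΔF508-homozygous primary bronchial epithelial cells incubated 48 h at 36.5° C with compound (10 μM) in IL-13-containing medium, then TECC24 current-clamp recording in pH 7.4 Hepes saline with benzamil 10 μM, forskolin 10 μM, then CFTR inhibitor-172 20 μM. Equivalent Cl− current AUC between forskolin and inhibitor, expressed as fold over DMSO.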

T2 sequence (P13569 with tags, fused parts or gaps DEL508-508): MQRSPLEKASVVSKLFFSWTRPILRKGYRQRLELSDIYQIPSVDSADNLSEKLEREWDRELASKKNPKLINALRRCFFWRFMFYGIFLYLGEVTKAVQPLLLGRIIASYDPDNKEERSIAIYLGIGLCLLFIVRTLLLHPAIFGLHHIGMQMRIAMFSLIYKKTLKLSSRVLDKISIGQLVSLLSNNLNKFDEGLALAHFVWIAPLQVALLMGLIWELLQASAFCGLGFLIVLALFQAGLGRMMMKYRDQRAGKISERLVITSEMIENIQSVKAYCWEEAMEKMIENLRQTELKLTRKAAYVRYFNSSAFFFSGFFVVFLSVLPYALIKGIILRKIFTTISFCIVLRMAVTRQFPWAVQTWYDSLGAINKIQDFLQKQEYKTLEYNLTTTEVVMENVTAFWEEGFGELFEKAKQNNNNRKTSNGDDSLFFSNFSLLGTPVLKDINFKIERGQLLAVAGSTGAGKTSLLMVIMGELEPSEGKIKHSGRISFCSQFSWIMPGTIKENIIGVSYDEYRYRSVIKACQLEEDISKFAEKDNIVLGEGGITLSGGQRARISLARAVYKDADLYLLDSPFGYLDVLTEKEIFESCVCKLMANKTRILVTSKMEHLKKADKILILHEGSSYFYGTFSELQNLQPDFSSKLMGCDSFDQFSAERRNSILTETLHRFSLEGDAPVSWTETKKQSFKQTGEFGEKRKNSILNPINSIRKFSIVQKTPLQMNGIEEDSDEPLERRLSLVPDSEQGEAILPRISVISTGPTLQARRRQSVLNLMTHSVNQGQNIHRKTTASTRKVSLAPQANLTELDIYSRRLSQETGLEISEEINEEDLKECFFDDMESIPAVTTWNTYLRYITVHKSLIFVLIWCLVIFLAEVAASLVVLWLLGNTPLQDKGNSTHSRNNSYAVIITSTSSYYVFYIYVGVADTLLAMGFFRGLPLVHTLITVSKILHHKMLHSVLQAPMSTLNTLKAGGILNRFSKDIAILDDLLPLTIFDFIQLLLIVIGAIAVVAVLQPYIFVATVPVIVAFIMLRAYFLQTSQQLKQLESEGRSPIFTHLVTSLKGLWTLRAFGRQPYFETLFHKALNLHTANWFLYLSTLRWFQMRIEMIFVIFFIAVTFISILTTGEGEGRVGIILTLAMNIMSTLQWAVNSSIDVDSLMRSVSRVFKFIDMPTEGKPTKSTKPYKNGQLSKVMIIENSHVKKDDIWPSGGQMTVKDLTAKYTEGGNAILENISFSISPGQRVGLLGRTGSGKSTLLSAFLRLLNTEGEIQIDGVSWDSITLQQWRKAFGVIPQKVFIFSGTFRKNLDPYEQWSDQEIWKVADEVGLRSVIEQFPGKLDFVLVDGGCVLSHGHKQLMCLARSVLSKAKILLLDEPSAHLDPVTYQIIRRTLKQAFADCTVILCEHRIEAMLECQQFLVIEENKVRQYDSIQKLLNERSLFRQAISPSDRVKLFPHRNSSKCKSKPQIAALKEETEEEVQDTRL
T1 sequence (P13569 423-646 limits assumed): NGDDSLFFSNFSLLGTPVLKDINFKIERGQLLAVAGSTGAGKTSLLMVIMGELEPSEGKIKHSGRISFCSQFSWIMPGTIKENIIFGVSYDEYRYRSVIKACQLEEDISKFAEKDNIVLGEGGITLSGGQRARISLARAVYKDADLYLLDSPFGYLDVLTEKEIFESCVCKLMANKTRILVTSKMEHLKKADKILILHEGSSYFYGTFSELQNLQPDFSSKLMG

As to `C/C(=C\c1cc(F)cc(C2(C)CCCC(C)(C)CS(=O)(=O)CCc3c(c(F)c(F)c4[nH]ccc34)Oc3ccc(F)c(c3)-c3nc2nn3C)c1)C(=O)O` (single isomer, unassigned) [Compound 17A, (E)-3-(3-fluoro-5-((Z)-26,46,47-trifluoro-11,9,9,13-tetramethyl-7,7-dioxido-11H,41H-3-oxa-7-thia-4(5,4)-indola-1(5,3)-triazola-2(1,3)-benzenacyclotridecaphane-13-yl)phenyl)-2-methylacrylic acid], in assay [1], the “DSLS 3D (100 μM ΔT)” value is “B (a value above 5 °C and less than or equal to 10 °C is marked “B”)”. For the same compound, the “TECC (AUC, 10 μM)” value in assay [2] is “A (a TECC value less than 12 is marked “A”)”.

Turning to `C/C(=C\c1cc(F)cc(C2(C)CCCC(C)(C)CS(=O)(=O)CCc3c(c(F)c(F)c4[nH]ccc34)Oc3ccc(F)c(c3)-c3nc2nn3C)c1)C(=O)O` (single isomer, unassigned) [Compound 17B, (E)-3-(3-fluoro-5-((Z)-26,46,47-trifluoro-11,9,9,13-tetramethyl-7,7-dioxido-1I1H,41H-3-oxa-7-thia-4(5,4)-indola-1(5,3)-triazola-2(1,3)-benzenacyclotridecaphane-13-yl)phenyl)-2-methylacrylic acid], the “DSLS 3D (100 μM ΔT)” value in assay [1] was “C (a value greater than 10 °C and less than or equal to 25 °C is marked “C”)”. Besides, in assay [2], the “TECC (AUC, 10 μM)” value is reported as “A (a TECC value less than 12 is marked “A”)”.

With `[2H]C([2H])([2H])C1(c2cccc(CC(C)C(=O)O)c2F)CCCC(C)(C)CS(=O)(=O)CCc2c(c(F)cc3[nH]ccc23)Oc2ccc(F)c(c2)-c2nc1nn2C` (single isomer, unassigned) [Compound 18A, 3-[3-[22,28-difluoro-3,10,10-trimethyl-12,12-dioxo-6-(trideuteriomethyl)-24-oxa-12lambda6-thia-3,4,19,30-tetrazapentacyclo[23.3.1.12,5.015,23.016,20]triaconta-1(29),2(30),4,15,17,20,22,25,27-nonaen-6-yl]-2-fluoro-phenyl]-2-methyl-propanoic acid], in assay [1], the “DSLS 3D (100 μM ΔT)” value was “B (a value above 5 °C and less than or equal to 10 °C is marked “B”)”. The “TECC (AUC, 10 μM)” value in assay [2] is given as “A (a TECC value less than 12 is marked “A”)”.

As for `[2H]C([2H])([2H])C1(c2cccc(CC(C)C(=O)O)c2F)CCCC(C)(C)CS(=O)(=O)CCc2c(c(F)cc3[nH]ccc23)Oc2ccc(F)c(c2)-c2nc1nn2C` (single isomer, unassigned) [Compound 18B, 3-[3-[22,28-difluoro-3,10,10-trimethyl-12,12-dioxo-6-(trideuteriomethyl)-24-oxa-12lambda6-thia-3,4,19,30-tetrazapentacyclo[23.3.1.12,5.015,23.016,20]triaconta-1(29),2(30),4,15,17,20,22,25,27-nonaen-6-yl]-2-fluoro-phenyl]-2-methyl-propanoic acid], the “DSLS 3D (100 μM ΔT)” value in assay [1] was “C (a value greater than 10 °C and less than or equal to 25 °C is marked “C”)”. In assay [2], the “TECC (AUC, 10 μM)” value is given as “B (a value between 12-20 is marked “B”)”.

Regarding `CC(Oc1cccc(C2(C)CCCC(C)(C)CS(=O)(=O)CCc3c(c(F)cc4[nH]ccc34)Oc3ccc(F)c(c3)-c3nc2nn3C)c1)C(=O)O` (single isomer, unassigned) [Compound 19A, 2-[3-[22,28-difluoro-3,6,10,10-tetramethyl-12,12-dioxo-24-oxa-12 6-thia-3,4,19,30-tetrazapentacyclo[23.3.1.12,5.015,23.016,20]triaconta-1(29),2(30),4,15,17,20,22,25,27-nonaen-6-yl]phenoxy]propanoic Acid], the “DSLS 3D (100 μM ΔT)” value in assay [1] was “C (a value greater than 10 °C and less than or equal to 25 °C is marked “C”)”. Further, the “TECC (AUC, 10 μM)” value in assay [2] was “C (a value between 20 and 80 is marked “C”)”.

`CC(Cc1cccc(C2(C#N)CCCC(C)(C)CS(=O)(=O)CCc3c(c(F)cc4[nH]ccc34)Oc3ccc(F)c(c3)-c3nc2nn3C)c1)C(=O)O` (single isomer, unassigned) [Compound 20A, 3-[3-[6-cyano-22,28-difluoro-3,10,10-trimethyl-12,12-dioxo-24-oxa-12lambda6-thia-3,4,19,30-tetrazapentacyclo[23.3.1.12,5.015,23.016,20]triaconta-1(29),2(30),4,15,17,20,22,25,27-nonaen-6-yl]phenyl]-2-methyl-propanoic Acid]: the “DSLS 3D (100 μM ΔT)” value in assay [1] is “C (a value greater than 10 °C and less than or equal to 25 °C is marked “C”)”. The “TECC (AUC, 10 μM)” value in assay [2] was “C (a value between 20 and 80 is marked “C”)”.

For the compound `CC(Cc1cccc(C2(C#N)CCCC(C)(C)CS(=O)(=O)CCc3c(c(F)cc4[nH]ccc34)Oc3ccc(F)c(c3)-c3nc2nn3C)c1)C(=O)O` (single isomer, unassigned) [Compound 20B, 3-[3-[6-cyano-22,28-difluoro-3,10,10-trimethyl-12,12-dioxo-24-oxa-12lambda6-thia-3,4,19,30-tetrazapentacyclo[23.3.1.12,5.015,23.016,20]triaconta-1(29),2(30),4,15,17,20,22,25,27-nonaen-6-yl]phenyl]-2-methyl-propanoic acid], in assay [1], the “DSLS 3D (100 μM ΔT)” value is “A (an ΔTagg value less than or equal to 5 °C is marked “A”)”. For the same compound, the “TECC (AUC, 10 μM)” value in assay [2] is “A (a TECC value less than 12 is marked “A”)”.

Regarding `CC1(C)CCCC(c2cccc(CCC(=O)O)c2)n2cc(C#N)c(n2)-c2cc(ccc2F)Oc2c(F)cc3[nH]ccc3c2CCS(=O)(=O)C1` (single isomer, unassigned) [Compound 22B, 3-[3-[3-cyano-22,28-difluoro-10,10-dimethyl-12,12-dioxo-24-oxa-12lambda6-thia-5,19,30-triazapentacyclo[23.3.1.12,5.015,23.016,20]triaconta-1(29),2(30),3,15,17,20,22,25,27-nonaen-6-yl]phenyl]propanoic acid], the “DSLS 3D (100 μM ΔT)” value in assay [1] is “A (an ΔTagg value less than or equal to 5 °C is marked “A”)”. Also, in assay [2], the “TECC (AUC, 10 μM)” value was “B (a value between 12-20 is marked “B”)”.

Consider `CC1(C)CCCC(c2cccc(CCC(=O)O)c2)n2cc(C#N)c(n2)-c2cc(ccc2F)Oc2c(F)cc3[nH]ccc3c2CCS(=O)(=O)C1` (single isomer, unassigned) [Compound 22C, 3-[3-[3-cyano-22,28-difluoro-10,10-dimethyl-12,12-dioxo-24-oxa-12lambda6-thia-5,19,30-triazapentacyclo[23.3.1.12,5.015,23.016,20]triaconta-1(29),2(30),3,15,17,20,22,25,27-nonaen-6-yl]phenyl]propanoic acid], for which, in assay [1], the “DSLS 3D (100 μM ΔT)” value was “C (a value greater than 10 °C and less than or equal to 25 °C is marked “C”)”. Moreover, the “TECC (AUC, 10 μM)” value in assay [2] is “C (a value between 20 and 80 is marked “C”)”.

As to `CC1(C)CCCC(c2cccc(CCC(=O)O)c2)n2ccc(n2)-c2cc(ccc2F)Oc2c(F)cc3[nH]ccc3c2CCS(=O)(=O)C1` (single isomer, unassigned) [Compound 24A, 3-[3-[22,28-difluoro-10,10-dimethyl-12,12-dioxo-24-oxa-12lambda6-thia-5,19,30-triazapentacyclo[23.3.1.12,5.015,23.016,20]triaconta-1(29),2(30),3,15,17,20,22,25,27-nonaen-6-yl]phenyl]propanoic Acid], the “DSLS 3D (100 μM ΔT)” value in assay [1] was “B (a value above 5 °C and less than or equal to 10 °C is marked “B”)”. The “TECC (AUC, 10 μM)” value in assay [2] is recorded as “A (a TECC value less than 12 is marked “A”)”.

Regarding `CC1(C)CCCC(c2cccc(CCC(=O)O)c2)n2ccc(n2)-c2cc(ccc2F)Oc2c(F)cc3[nH]ccc3c2CCS(=O)(=O)C1` (single isomer, unassigned) [Compound 24B, 3-[3-[22,28-difluoro-10,10-dimethyl-12,12-dioxo-24-oxa-12lambda6-thia-5,19,30-triazapentacyclo[23.3.1.12,5.015,23.016,20]triaconta-1(29),2(30),3,15,17,20,22,25,27-nonaen-6-yl]phenyl]propanoic Acid], the “DSLS 3D (100 μM ΔT)” value in assay [1] is “C (a value greater than 10 °C and less than or equal to 25 °C is marked “C”)”. Moreover, the “TECC (AUC, 10 μM)” value in assay [2] is reported as “A (a TECC value less than 12 is marked “A”)”.

For `CC1(C)CCCC(C)(c2cccc(CCC(=O)O)c2)c2c[nH]c(n2)-c2cc(ccc2F)Oc2c(F)cc3[nH]ccc3c2CCS(=O)(=O)C1` (single isomer, unassigned) [Compound 27A, 3-[3-(22,28-difluoro-6,10,10-trimethyl-12,12-dioxo-24-oxa-12lambda6-thia-3,19,30-triazapentacyclo[23.3.1.12,5.015,23.016,20]triaconta-1(29),2,4,15,17,20,22,25,27-nonaen-6-yl)phenyl]propanoic acid], the “DSLS 3D (100 μM ΔT)” value in assay [1] is “B (a value above 5 °C and less than or equal to 10 °C is marked “B”)”. Also, in assay [2], the “TECC (AUC, 10 μM)” value is on record as “A (a TECC value less than 12 is marked “A”)”.

For the compound `CC1(C)CCCC(C)(c2cccc(CCC(=O)O)c2)c2c[nH]c(n2)-c2cc(ccc2F)Oc2c(F)cc3[nH]ccc3c2CCS(=O)(=O)C1` (single isomer, unassigned) [Compound 27B, 3-[3-(22,28-difluoro-6,10,10-trimethyl-12,12-dioxo-24-oxa-12lambda6-thia-3,19,30-triazapentacyclo[23.3.1.12,5.015,23.016,20]triaconta-1(29),2,4,15,17,20,22,25,27-nonaen-6-yl)phenyl]propanoic acid], the “DSLS 3D (100 μM ΔT)” value in assay [1] was “C (a value greater than 10 °C and less than or equal to 25 °C is marked “C”)”. In assay [2], the “TECC (AUC, 10 μM)” value was “C (a value between 20 and 80 is marked “C”)”.
